Experimental data taken from patent US20220144775A1, “HYDRAZIDE COMPOUND AND KINASE INHIBITOR” (NISSAN CHEMICAL CORPORATION, priority 2019, published 2022).

Experiments:
LATS1 = molecular target: T1, LATS1 (Homo sapiens, UniProt O95835); assay: Kinase inhibitory activity against LATS1 (ADP quantification); assay type: biochemical; conditions: ATP 400 μM, read-out: kinase inhibitory rate; for inhibition at 0.1 µM: final concentration 100 nM; for inhibition at 1 µM: final concentration 1000 nM
T1 construct: purchased Carna Biosciences
T1 sequence (O95835 1-1130): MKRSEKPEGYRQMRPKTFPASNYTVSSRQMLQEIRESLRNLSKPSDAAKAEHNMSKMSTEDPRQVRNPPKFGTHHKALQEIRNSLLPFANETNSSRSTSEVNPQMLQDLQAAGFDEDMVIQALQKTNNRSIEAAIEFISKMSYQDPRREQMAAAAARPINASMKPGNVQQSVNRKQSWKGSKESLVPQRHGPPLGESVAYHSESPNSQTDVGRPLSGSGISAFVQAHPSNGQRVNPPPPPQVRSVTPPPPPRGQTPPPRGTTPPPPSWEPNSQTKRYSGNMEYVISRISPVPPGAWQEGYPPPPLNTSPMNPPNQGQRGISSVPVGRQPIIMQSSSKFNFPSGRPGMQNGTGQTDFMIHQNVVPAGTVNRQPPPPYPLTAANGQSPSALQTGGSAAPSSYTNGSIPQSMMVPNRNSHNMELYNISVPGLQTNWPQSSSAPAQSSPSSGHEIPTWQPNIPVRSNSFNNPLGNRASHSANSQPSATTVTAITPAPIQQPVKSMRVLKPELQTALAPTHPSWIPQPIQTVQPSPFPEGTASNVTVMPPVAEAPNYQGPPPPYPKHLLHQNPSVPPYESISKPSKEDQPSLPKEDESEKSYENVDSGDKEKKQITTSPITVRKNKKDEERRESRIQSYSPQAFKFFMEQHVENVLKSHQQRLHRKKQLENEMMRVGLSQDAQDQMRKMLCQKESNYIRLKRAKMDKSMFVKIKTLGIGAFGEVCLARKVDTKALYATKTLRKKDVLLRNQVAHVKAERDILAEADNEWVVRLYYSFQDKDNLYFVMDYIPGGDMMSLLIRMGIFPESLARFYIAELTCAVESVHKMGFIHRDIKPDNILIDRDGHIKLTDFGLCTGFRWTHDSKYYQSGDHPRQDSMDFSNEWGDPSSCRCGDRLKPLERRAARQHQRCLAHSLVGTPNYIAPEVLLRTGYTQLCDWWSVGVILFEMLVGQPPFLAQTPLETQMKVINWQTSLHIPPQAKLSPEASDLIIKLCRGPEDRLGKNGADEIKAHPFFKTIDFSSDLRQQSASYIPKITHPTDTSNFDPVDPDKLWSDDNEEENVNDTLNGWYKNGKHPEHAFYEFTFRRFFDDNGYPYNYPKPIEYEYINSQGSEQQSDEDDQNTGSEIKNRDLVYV
Description: (§1) Evaluation of the inhibitory activity (calculation of kinase inhibitory rate) of the compound of the present invention against LATS1 and LATS2 (manufactured by Carna Biosciences) was performed. The activity was measured using the Kinase Assay method described below. The test concentration of the compound of the present invention was set such that the final concentration was 100 nM or 1000 nM.
(§2) As the analysis method of the data, the mean signal of the control well containing reaction components other than the compound of the present invention was set to 0% inhibition, the mean signal without enzyme addition was set to 100% inhibition, and the inhibition rate was calculated from the mean signal of 2 wells of each compound.
(§3) 2 μL of a compound of the present invention solution at 2.5-fold concentration, 1 μL of substrate at 5-fold concentration (SGKtide: NH2-CKKRNRRLSVA-COOH, manufactured by SignalChem), ATP (manufactured by Sigma-Aldrich), MgCl2 (manufactured by FUJIFILM Wako Pure Chemical Corporation) solution (final concentration 10 μM, 400 μM and 5 mM, respectively), and 2 μL of kinase solution at 2.5-fold concentration (final concentration of LATS1 or LATS2 5 μg/mL), each prepared with assay buffer (20 mM HEPES, 0.01% Triton X-100, 2 mM DTT, 50 μg/mL BSA, pH 7.5), were mixed in the wells of a polypropylene 384-well plate (manufactured by Greiner Bio-One, #784900) and reacted at room temperature for 5 hr. To the solution was added 5 μL detection solution [Fluorospark (registered trade mark) Kinase/ADP Multi-Assay Kit; manufactured by FUJIFILM Wako Pure Chemical Corporation], and the mixture was reacted at room temperature for 30 min. Successively, 5 μL of a reaction quenching liquid [Fluorospark (registered trade mark) Kinase/ADP Multi-Assay Kit; manufactured by FUJIFILM Wako Pure Chemical Corporation] was added to discontinue the reaction. Thereafter, the ADP concentration of the reaction solution was quantified by EnSpire (manufactured by PerkinElmer) to detect the kinase reaction.

LATS2 = molecular target: T2, LATS2 (Homo sapiens, UniProt Q9NRM7); assay: Kinase inhibitory activity against LATS2 (ADP quantification); assay type: biochemical; conditions: ATP 400 μM, read-out: kinase inhibitory rate; for inhibition at 0.1 µM: final concentration 100 nM; for inhibition at 1 µM: final concentration 1000 nM
T2 construct: purchased Carna Biosciences
T2 sequence (Q9NRM7 1-1088): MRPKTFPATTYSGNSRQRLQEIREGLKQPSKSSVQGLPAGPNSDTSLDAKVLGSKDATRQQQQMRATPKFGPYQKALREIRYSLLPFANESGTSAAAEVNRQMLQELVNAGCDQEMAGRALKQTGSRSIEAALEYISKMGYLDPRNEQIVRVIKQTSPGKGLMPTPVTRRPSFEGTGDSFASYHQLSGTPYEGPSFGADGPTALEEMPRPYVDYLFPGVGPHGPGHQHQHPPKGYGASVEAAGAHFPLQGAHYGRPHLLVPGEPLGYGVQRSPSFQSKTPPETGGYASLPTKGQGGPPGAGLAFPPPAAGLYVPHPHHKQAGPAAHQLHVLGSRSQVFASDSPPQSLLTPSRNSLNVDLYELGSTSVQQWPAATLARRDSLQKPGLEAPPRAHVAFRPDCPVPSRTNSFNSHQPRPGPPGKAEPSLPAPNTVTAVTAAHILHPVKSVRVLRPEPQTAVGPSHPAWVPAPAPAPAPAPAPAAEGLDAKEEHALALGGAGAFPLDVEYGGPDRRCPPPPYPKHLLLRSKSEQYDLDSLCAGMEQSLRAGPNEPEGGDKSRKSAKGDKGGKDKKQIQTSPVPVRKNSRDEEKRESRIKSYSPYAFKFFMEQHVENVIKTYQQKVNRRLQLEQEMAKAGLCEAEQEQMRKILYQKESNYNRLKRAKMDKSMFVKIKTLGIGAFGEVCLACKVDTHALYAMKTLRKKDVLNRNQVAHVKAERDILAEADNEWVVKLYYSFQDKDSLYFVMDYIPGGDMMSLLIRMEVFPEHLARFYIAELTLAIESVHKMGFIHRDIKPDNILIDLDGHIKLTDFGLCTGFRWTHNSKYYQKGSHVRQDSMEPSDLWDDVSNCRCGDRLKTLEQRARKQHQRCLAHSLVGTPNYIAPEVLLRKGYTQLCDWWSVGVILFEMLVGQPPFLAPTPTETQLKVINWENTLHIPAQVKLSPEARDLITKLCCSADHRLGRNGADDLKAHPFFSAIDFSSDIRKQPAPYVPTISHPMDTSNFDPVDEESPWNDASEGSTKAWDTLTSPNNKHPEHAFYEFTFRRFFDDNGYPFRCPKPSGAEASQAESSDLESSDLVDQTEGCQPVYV
Description: as §1, §2, §3

YAP = YAP phosphorylation inhibitory action in SKOV3 (HTRF); assay type: cell-based, human; conditions: 10 μM, 1 hr, non-treatment 100%
Description: Human ovarian cancer cell line SKOV3 (manufactured by DS Pharma Biomedical Co., Ltd.) was precultured using a 15% FBS-containing McCoy's 5a medium (manufactured by Sigma-Aldrich) (single layer culture). The above-mentioned cells in the logarithmic growth phase were washed with PBS. A 0.25% (w/v) trypsin-1 mmol/L ethylenediaminetetraacetic acid (EDTA) solution (manufactured by FUJIFILM Wako Pure Chemical Corporation) was added and the adherent cells were incubated at 37° C. for 3 min and detached. The above-mentioned medium was added, and the cells were centrifuged and resuspended in the same medium.
According to the method of patent document 1 (WO 2014/017513), a composition of 10% FBS-containing DMEM medium (Phenol-red free, manufactured by FUJIFILM Wako Pure Chemical Corporation) containing 0.015% (w/v) deacylated gellan gum (KELCOGEL CG-LA, manufactured by SANSHO Co., Ltd.) was prepared using FCeM-series Preparation Kit (manufactured by FUJIFILM Wako Pure Chemical Corporation). Then, various cells prepared above were suspended in the above-mentioned medium composition (3D culture conditions) added with deacylated gellan gum or a medium without the addition (2D culture conditions), and seeded on a 50 μL/well (manufactured by Corning Incorporated, a 96 well flat bottom plate, #3585, 2D culture conditions) or 25 μL/well (manufactured by Corning Incorporated, 96 well low adhesion flat bottom plate, #3474) at 100000 cells/well. The plate was allowed to stand at 37° C. in a 5% CO2 incubator, and the compound of the present invention diluted with the medium at 2 or 6 times the final concentration, DMSO, or the medium alone was added to the plate 3 hr after the seeding at 50 μL/well (2D culture conditions) or 5 μL/well (3D culture conditions) to make the final concentration of each compound 10 μM. After culture at 37° C. in a 5% CO2 incubator for 1 hr, the supernatant was aspirated, supplemented Lysis buffer (1-fold concentration, manufactured by Cisbio, YAP-total kit or YAP phospho-S27 kit) (50 μL) was added under 2D culture conditions, and supplemented Lysys buffer (4-fold concentration) (10 μL) was added to the culture supernatant under 3D conditions, and the mixture was stirred by a plate shaker for 30 min. Thereafter, the plate was centrifuged, 16 μL of the supernatant was transferred to a 384-well white plate (Corning, #4512), and each antibody solution (pYAP d2 antibody or Total-YAP d2 antibody, and pYAP Cryptate antibody or Total-YAP Cryptate antibody) included in the kit was added at 4 μL/well in total, and the mixture was allowed to stand at room temperature overnight. As a blank control, pYAP Cryptate antibody or Total-YAP Cryptate antibody alone was added to cells free of stimulation with compound and the mixture was treated in the same manner. The next day, the wavelengths at 665 nm and 615′ nm were measured in the HTRF mode of EnVision (manufactured by PerkinElmer).
The obtained signal was calculated as follows. Ratio=signal (665 nm)/signal (615 nm)×10000, ΔR=Signal(Ratio)−Background fluorescence, and the relative phosphorylated YAP amount or total YAP amount for each compound when ΔR of the compound non-addition group (non-treatment) is 100% is shown in Tables 7 and 8 (2D culture), and Tables 9 and 10 (3D culture). From the results, it was shown that the compound of the present zo invention has a YAP phosphorylation inhibitory action under both 2D and 3D culture conditions.

SMILES	inhibition at 0.1 µM (LATS1) [%]	inhibition at 1 µM (LATS1) [%]	inhibition at 0.1 µM (LATS2) [%]	inhibition at 1 µM (LATS2) [%]	phosphorylated YAP amount (%) (YAP; 2D culture conditions)	total YAP amount (%) (YAP; 2D culture conditions)	phosphorylated YAP amount (%) (YAP; 3D culture conditions)	total YAP amount (%) (YAP; 3D culture conditions)
CC/C(=N\NC(=O)CNc1ccccn1)c1ccc(O)c(C)c1O [A-001, (E)-N′-(1-(2,4-dihydroxy-3-methylphenyl)propylidene)-2-(pyridin-2-ylamino)acetohydrazide]	≥ 40	≥ 40	≥ 40	≥ 40	–	–	–	–
CC/C(=N\NC(=O)CNc1cccnc1)c1ccc(O)c(C)c1O [A-002]	–	–	–	–	50	85	78	100
CC/C(=N\NC(=O)C(CC)Nc1cccnc1)c1ccc(O)c(C)c1O (centres unmarked) [A-005]	–	–	–	–	27	94	30	102
CC/C(=N\NC(=O)[C@@H](C)Nc1cncc(F)c1)c1ccc(O)c(C)c1O [A-007R]	–	–	–	–	8	98	15	108
CC/C(=N\NC(=O)[C@@H](C)Nc1ccc(F)nc1)c1ccc(O)c(C)c1O [A-010]	–	–	–	–	11	94	20	114
CC/C(=N\NC(=O)[C@@H](C)Nc1cncc(Cl)c1)c1ccc(O)c(C)c1O [A-011]	–	–	–	–	46	91	55	98
CC/C(=N\NC(=O)[C@@H](C)Nc1ccc(Cl)nc1)c1ccc(O)c(C)c1O [A-012]	–	–	–	–	19	87	23	103
CC/C(=N\NC(=O)[C@@H](C)Nc1cncc(C(F)(F)F)c1)c1ccc(O)c(C)c1O [A-013]	–	–	–	–	42	91	49	96
CC/C(=N\NC(=O)[C@@H](C)Nc1cncnc1)c1ccc(O)c(C)c1O [A-017, (R,E)-N′-[1-(2,4-dihydroxy-3-methylphenyl)propylidene]-2-(pyrimidin-5-ylamino)propanehydrazide]	≥ 40	≥ 40	≥ 40	≥ 40	–	–	–	–
CC/C(=N\NC(=O)[C@@H](C)Nc1ccc2cccnc2c1)c1ccc(O)c(C)c1O [A-019, (R,E)-N′-[1-(2,4-dihydroxy-3-methylphenyl)propylidene]-2-(quinolin-7-ylamino)propanehydrazide]	≥ 40	≥ 40	–	≥ 40	–	–	–	–
CC/C(=N\NC(=O)NCc1cccnc1)c1ccc(O)c(C)c1O [B-001, (E)-2-(1-(2,4-dihydroxy-3-methylphenyl)propylidene)-N-(pyridin-3-ylmethyl)hydrazine-1-carboxamide]	–	≥ 40	–	≥ 40	–	–	–	–
